Our source for the IC50 and IC90 values is ChEMBL document CHEMBL4483862, “Open-source discovery of chemical leads for next-generation chemoprotective antimalarials” (2018).

pIC50: −log10 of the molar value.

For orientation: pIC50 means the negative decadic logarithm of the IC50, by convention in mol/L. In general, IC90 refers to the concentration at which the effect reaches the 90% level.

In this test the test system is Plasmodium berghei. As to the kind of experiment: Luciferase/luciferin-expressing antifolate-resistant parasites were used to infect a culture of HepG2 cells that were pre-incubated with compounds. Infected hepatocytes emit light due to the luciferase reaction. Assay results are presented as the percent inhibition of light emission compared to control. […]. The test is classed as functional. To be noted: sporozoite; for IC90: read-out: LUCIFERASE INFECTION ASSAY - IC90.

Setting [1] is: read-out: LUCIFERASE INFECTION ASSAY - IC50.

For the molecule `C1=C(c2ccccc2)CCN(Cc2cccc3cccnc23)C1`, the IC90 was determined as 9.68 µM. Also, the pIC50 (HEPG2TOX_HILL_SLOPE 3.29, HEPG2TOX_R_SQUARED 0.953, PBLUC_HILL_SLOPE 4.04, PBLUC_R_SQUARED 0.237, read-out: LUCIFERASE INFECTION ASSAY - IC50) was 5.25.
Turning to `COc1ccc(-c2cc(=O)n3nc(C)c(-c4ccc(F)cc4)c3[nH]2)cc1`, the IC90 amounted to 3.24 µM. Where the note is “HEPG2TOX_HILL_SLOPE 2.56, HEPG2TOX_R_SQUARED 0.662, PBLUC_HILL_SLOPE 58.3, PBLUC_R_SQUARED 0.0989, read-out: LUCIFERASE INFECTION ASSAY - IC50”, the pIC50 was 5.51.
For the molecule `O=C(NCc1nccs1)c1nn(Cc2ccccc2)c2c1CN(C(=O)c1cc3ccccc3[nH]1)CC2`, the IC90 was over 6.65 µM. Besides, for the setting “PBLUC_HILL_SLOPE 8.98, PBLUC_R_SQUARED 0.075, read-out: LUCIFERASE INFECTION ASSAY - IC50”, the pIC50 is 5.24.
`CCc1ccc(C(=O)Nc2cccc(NC(=O)c3ccccc3C)c2)cc1`: the IC90 came to 1.14 µM. Also, the pIC50 (HEPG2TOX_HILL_SLOPE 1.42, HEPG2TOX_R_SQUARED 0.919, PBLUC_HILL_SLOPE 4.98, PBLUC_R_SQUARED 0.845, read-out: LUCIFERASE INFECTION ASSAY - IC50) is 6.13.
Take `COc1ncccc1C(=O)Nc1cc(Cl)cc(Cl)c1`: the IC90 is 3.83 µM. Also, the pIC50 (PBLUC_HILL_SLOPE 56, PBLUC_R_SQUARED 0.566, read-out: LUCIFERASE INFECTION ASSAY - IC50) is 5.43.
On to `O=C(Cn1nnc2ccccc2c1=O)c1ccc(C2CCCCC2)cc1`, for which the IC90 is over 10 µM. Under “PBLUC_HILL_SLOPE 0.775, PBLUC_R_SQUARED 0.761, read-out: LUCIFERASE INFECTION ASSAY - IC50”, the pIC50 was 5.95.
Take `O=S(=O)(Cc1noc(-c2cccs2)n1)c1ccc(F)cc1`: the IC90 was over 10.2 µM. In addition, the pIC50 under setting [1] is under 4.99.
On the same counts, the results for `CNc1nc(NCc2cccc(OC)c2)c2sc(-c3ccccc3)cc2n1` are over 8.77 µM and under 5.06.
Take `CCOc1cc(/C=C/C(=O)c2nc3ccccc3s2)cc(Cl)c1OCC(=O)N(C)C`: the IC90 was 4.79 µM. The pIC50 (HEPG2TOX_HILL_SLOPE 10.9, HEPG2TOX_R_SQUARED 0.987, PBLUC_HILL_SLOPE 8.99, 3.54, PBLUC_R_SQUARED 0.449, 0.614, read-out: LUCIFERASE INFECTION ASSAY - IC50) was 5.32.
For `S=C(N/N=C/c1ccccn1)Nc1ccc(Cl)c(Cl)c1`, the IC90 was over 10.1 µM. For the setting “HEPG2TOX_HILL_SLOPE 7.56, HEPG2TOX_R_SQUARED 0.274, PBLUC_HILL_SLOPE 6.84, PBLUC_R_SQUARED 0.4, read-out: LUCIFERASE INFECTION ASSAY - IC50”, the negative logarithm of the IC50 (pIC50) was 5.12.
In the case of `CCOc1cc(C(=O)NC2CCCCCC2)ccc1OCc1cccnc1`, the IC90 is over 2 µM. Also, the pIC50 under setting [1] was under 5.70.
Take `CCOC(=O)c1c(-c2ccc(Br)cc2)cn2c(=O)/c(=C3\C=CC=CN3C)sc12`: the IC90 is over 10 µM. Further, for the setting “FFLUC_HILL_SLOPE 2.7, FFLUC_R_SQUARED 0.575, PBLUC_HILL_SLOPE 2.12, PBLUC_R_SQUARED 0.479, read-out: LUCIFERASE INFECTION ASSAY - IC50”, the pIC50 is 5.15.
Turning to `CC1(CCc2ccccc2)NCC(c2ccc(Cl)cc2Cl)c2c1[nH]c1ccccc21` (stereo not given), the IC90 was over 10 µM. Also, the pIC50 (FFLUC_HILL_SLOPE 44.6, FFLUC_R_SQUARED 0.534, read-out: LUCIFERASE INFECTION ASSAY - IC50) was under 5.00.
Regarding `Cc1cc(C(=O)Nc2ccncc2Cl)c(C)s1`, the IC90 is over 10 µM. Further, the pIC50 under setting [1] is under 5.00.
`CCCc1nc2oc3cc(OC)ccc3c(=O)c2c(=O)n1Cc1ccco1`: the IC90 was over 9.01 µM. Moreover, under “PBLUC_HILL_SLOPE 1.9, PBLUC_R_SQUARED 0.121, read-out: LUCIFERASE INFECTION ASSAY - IC50”, the pIC50 is 5.25.
As for `COc1ccc(-c2cn3c(-c4ccc(OC)nc4)cnc3cn2)cn1`, the concentration for an effect of 90% (IC90) was over 9.9 µM. Besides, the pIC50 (PBLUC_HILL_SLOPE 11.1, PBLUC_R_SQUARED 0.0252, read-out: LUCIFERASE INFECTION ASSAY - IC50) was 5.02.
For `CN(C)c1cccc(-c2cnc(N)c(-c3ccc(O)cc3)c2)c1`, the IC90 was over 10.8 µM. In addition, the pIC50 (PBLUC_HILL_SLOPE 24.2, PBLUC_R_SQUARED 0.305, read-out: LUCIFERASE INFECTION ASSAY - IC50) is 4.98.
For `Cc1nn(C(C)(C)C)c2c1C(c1ccc3c(c1)OCO3)C1C(=O)CC(C)(C)CC1=N2` (stereo not given), the IC90 was over 10 µM. Moreover, the pIC50 (HEPG2TOX_HILL_SLOPE 2.55, HEPG2TOX_R_SQUARED 0.436, read-out: LUCIFERASE INFECTION ASSAY - IC50) was under 5.00.
Take `CC(=O)Nc1ccc(-c2ccc3ncc(-c4ccc(CO)cc4)n3n2)cc1`: the IC90 is over 10 µM. Moreover, the pIC50 (HEPG2TOX_HILL_SLOPE 0.612, HEPG2TOX_R_SQUARED 0.859, PBLUC_HILL_SLOPE 1.16, PBLUC_R_SQUARED 0.655, read-out: LUCIFERASE INFECTION ASSAY - IC50) is 5.72.
Consider `CCC(CC)c1nn(CC(=O)c2cc(C)n(CCOC)c2C)c(=N)s1`, for which the IC90 is over 10 µM. Where the note is “PBLUC_HILL_SLOPE 8.4, PBLUC_R_SQUARED 0.0548, read-out: LUCIFERASE INFECTION ASSAY - IC50”, the pIC50 was 5.04.
As for `COc1cc(-c2cc(-c3ccccc3F)cnc2N)ccc1O`, the IC90 was found to be 4.23 µM. Besides, where the note is “PBLUC_HILL_SLOPE 10.3, PBLUC_R_SQUARED 0.764, read-out: LUCIFERASE INFECTION ASSAY - IC50”, the pIC50 was 5.47.
Turning to `C=CCn1c(SCC(=O)c2cc(C)n(CC3CCCO3)c2C)nc2scc(-c3ccc(C)cc3)c2c1=O` (stereo not given), the 90% effect concentration (IC90) was over 10 µM. In addition, the pIC50 (FFLUC_HILL_SLOPE 2.53, FFLUC_R_SQUARED 0.599, read-out: LUCIFERASE INFECTION ASSAY - IC50) is under 5.00.
Turning to `CCn1c(=O)c(C)nc2cc(C(=O)Nc3ccc(C(C)(C)C)cc3)ccc21`, the IC90 is 1.74 µM. Further, the pIC50 (HEPG2TOX_HILL_SLOPE 2.17, HEPG2TOX_R_SQUARED 0.922, PBLUC_HILL_SLOPE 3.75, PBLUC_R_SQUARED 0.489, read-out: LUCIFERASE INFECTION ASSAY - IC50) is 6.02.
As to `CN(C)c1c(F)cc(C(=O)Nc2cc(C(F)(F)F)cc(C(F)(F)F)c2)cc1F`, the 90% effect concentration (IC90) is over 8 µM. Moreover, for the setting “HEPG2TOX_HILL_SLOPE 10.3, HEPG2TOX_R_SQUARED 0.772, PBLUC_HILL_SLOPE 1.36, PBLUC_R_SQUARED 0.505, read-out: LUCIFERASE INFECTION ASSAY - IC50”, the pIC50 is under 5.10.
For `COc1cc(C)c(CN2CCC(c3nc4ccccc4s3)CC2)cc1OC`, the concentration for an effect of 90% (IC90) worked out at 5.49 µM. For the same molecule, the negative logarithm of the IC50 (pIC50) (HEPG2TOX_HILL_SLOPE 1.28, HEPG2TOX_R_SQUARED 0.688, PBLUC_HILL_SLOPE 2.8, PBLUC_R_SQUARED 0.756, read-out: LUCIFERASE INFECTION ASSAY - IC50) is 5.60.
Take `O=C(Nc1ccc(OCc2ccccc2)cc1)C1=COC2=NC(=O)N(Cc3cccc(Cl)c3)CCN12`: the IC90 stood at 4.47 µM. The pIC50 (HEPG2TOX_HILL_SLOPE 2.27, HEPG2TOX_R_SQUARED 0.429, PBLUC_HILL_SLOPE 8.12, PBLUC_R_SQUARED 0.376, read-out: LUCIFERASE INFECTION ASSAY - IC50) was 5.47.
Turning to `Oc1ccc(-c2cnc3cnc(-c4ccc(Cl)cc4)cn23)cc1`, the IC90 stood at 4.61 µM. In addition, the pIC50 (HEPG2TOX_HILL_SLOPE 2.24, HEPG2TOX_R_SQUARED 0.991, PBLUC_HILL_SLOPE 6.34, PBLUC_R_SQUARED 0.684, read-out: LUCIFERASE INFECTION ASSAY - IC50) was 5.49.
In the case of `Cc1cc(C=C2Sc3ccccc3N2C)cc(C)[n+]1C(C)C1CC2CCC1C2` (stereo not given), the 90% effect concentration (IC90) was 0.589 µM. Further, the pIC50 (HEPG2TOX_HILL_SLOPE 0.905, HEPG2TOX_R_SQUARED 0.888, PBLUC_HILL_SLOPE 1.95, PBLUC_R_SQUARED 0.822, read-out: LUCIFERASE INFECTION ASSAY - IC50) is 6.72.
For the molecule `Cc1onc(-c2ccccc2)c1C(=O)ON=C1C2CC3CC(C2)CC1C3`, the IC90 was over 9.42 µM. Moreover, where the note is “PBLUC_HILL_SLOPE 14.9, PBLUC_R_SQUARED 0.433, read-out: LUCIFERASE INFECTION ASSAY - IC50”, the pIC50 is 5.06.
As for `Cc1ccc(C(C)(C)C)cc1S(=O)(=O)Nc1ccc(C(=O)OC(C)c2nc(=O)c3c(C)c(C)sc3[nH]2)cc1` (stereo not given), the IC90 is over 10 µM. Under setting [1], the pIC50 was under 5.00.
For the molecule `Cc1cccc(C(=O)Nc2cc(S(=O)(=O)N3CCOCC3)ccc2N2CCCCC2)n1`, the IC90 is over 10 µM. The pIC50 (HEPG2TOX_HILL_SLOPE 0.0521, HEPG2TOX_R_SQUARED 0.112, read-out: LUCIFERASE INFECTION ASSAY - IC50) is under 5.00.
As for `Cc1nn(Cc2ccccc2)c(Cl)c1C(=O)Nc1nnc(-c2ccccc2)o1`, the IC90 was determined as 4.08 µM. The pIC50 (HEPG2TOX_HILL_SLOPE 1.65, HEPG2TOX_R_SQUARED 0.7, PBLUC_HILL_SLOPE 2.41, 3.47, PBLUC_R_SQUARED 0.702, 0.681, read-out: LUCIFERASE INFECTION ASSAY - IC50) is 5.74.
`COc1ccc(C(N)=O)c(OCCC23CC4CC(CC(C4)C2)C3)c1`: the IC90 was over 10 µM. Further, the pIC50 (PBLUC_HILL_SLOPE 2.6, PBLUC_R_SQUARED 0.547, read-out: LUCIFERASE INFECTION ASSAY - IC50) is 5.22.
As to `Cc1ccc(-n2nc(C)c3c(C(=O)N4CCC(C)CC4)cc(-c4ccncc4)nc32)cc1`, the 90% effect concentration (IC90) was over 10 µM. Besides, the pIC50 under setting [1] is under 5.00.
On to `OCc1cccc(Nc2nc(-c3ccsc3)nc3ccccc23)c1`, for which the IC90 was over 10 µM. Moreover, the pIC50 under setting [1] is under 5.00.
